Results from article PMC9181126, “Design, Synthesis, Molecular Docking Analysis and Biological Evaluations of 4-[(Quinolin-4-yl)amino]benzamide Derivatives as Novel Anti-Influenza Virus Agents” (International Journal of Molecular Sciences, 2022).

Legend:
[1] = tested on: influenza virus A/WSN/33 (H1N1); test: microbe, parasite or virus in culture; type: cell-based; conditions: MDCK, 72 h; for inhibition at 12.5 µM / inhibition at 25 µM / inhibition at 50 µM / inhibition at 100 µM: H1N1|WSN, read-out: Antiviral activity in CPE assay; for EC50: read-out: Cytopathic Effect Assay (A/WSN/33, H1N1) EC50
in vitro [2] = type: cell-based, canine; conditions: dog
Protocol: (§1) The 3-(4,5-dimethylthiazol-2-yl)-2,5-diphenyltetrazolium bromide (MTT) method was performed to assess the cytotoxicity of target compounds in MDCK cells and HEK293T cells. Firstly, MDCK cells or HEK293T cells were seeded into the 96-well plate. Then, the media containing test compounds replaced the growth media after 48 h. Incubate MDCK cells or HEK293T cells with test compounds for 72 h at 37 °C in a humidified 5% CO2 incubator. Later, MTT solution (5 mg/mL in PBS) was added into each well and plates were incubated for 4 h at 37 °C. Then, add a solubilization solution to lyse cells. Finally, absorbance was read at 620 nm using an ELISA plate reader (Tecan Sunrise) after 3 h of further incubation at 37 °C. We set the values obtained from the wells treated with only DMSO as 100% of viable cells.

MDCK cells = test: in vitro; type: cell-based, canine; conditions: dog, 72 h
Protocol: as §1

[3] = tested on: influenza virus A/WSN/33 (H1N1); test: Plaque inhibition assay in MDCK cells; type: cell-based; conditions: MDCK; concentration 100 µM; read-out: Plaque Inhibition Assay (A/WSN/33, H1N1) Inhibition Rate
HEK293T cells = test: in vitro; type: cell-based; conditions: human, 72 h
Protocol: as §1

in vitro [4] = type: cell-based; conditions: human
Protocol: as §1

PA-PB1 endonuclease [5] = tested on: PA-PB1 endonuclease; set-up: method as in supplement 1-7; conditions: training and test set compounds collected from literature; ref supplement 1-7; read-out: IC50 value Experimental (PA-PB1 endonuclease inhibitors); cited from earlier work
PA-PB1 endonuclease [6] = test: Experimental PA-PB1 inhibitory activity of literature inhibitors (training and test set); type: biochemical, influenza virus; conditions: class of the experimental IC50

SMILES: COc1ccccc1OCCNC(=O)c1ccc(Nc2ccnc3cc(C)ccc23)cc1 [Compound G21, N-[2-(2-Methoxyphenoxy)ethyl]-4-[(7-methylquinolin-4-yl)amino]benzamide]
- melting point: 209.6 to 210.6 °C
- inhibition at 12.5 µM [1]: 43 ± 7.31%
- inhibition at 25 µM [1]: 39.8 ± 7.16%
- inhibition at 50 µM [1]: 39.8 ± 6.58%
- inhibition at 100 µM [1]: 50.1 ± 5.45%
- EC50 [1]: > 100 µM
- CC50 at 72 h (in vitro [2]): > 100 µM
- MDCK cells survival rate (MDCK cells; 12.5 µmol·L−1): 83.41±3.67%
- MDCK cells survival rate (MDCK cells; 25 µmol·L−1): 80.18±7.27%
- MDCK cells survival rate (MDCK cells; 50 µmol·L−1): 93.28±9.93%
- MDCK cells survival rate (MDCK cells; 100 µmol·L−1): 88.84±3.59%
- inhibition at 100 µM [3]: 11.5%
- HEK293T cells survival rate (HEK293T cells; 3.125 µmol·L−1): 117.39±1.03%
- HEK293T cells survival rate (HEK293T cells; 6.25 µmol·L−1): 103.95±2.65%
- HEK293T cells survival rate (HEK293T cells; 12.5 µmol·L−1): 105.56±6.72%
- HEK293T cells survival rate (HEK293T cells; 25 µmol·L−1): 102.64±2.91%
- HEK293T cells survival rate (HEK293T cells; 50 µmol·L−1): 110.67±8.55%
- HEK293T cells survival rate (HEK293T cells; 100 µmol·L−1): 50.09±0.70%
- CC50 at 72 h (in vitro [4]): > 100 µM

SMILES: COc1ccccc1OCCNC(=O)c1ccc(Nc2ccnc3ccc(Br)cc23)cc1 [Compound G24, N-[2-(2-Methoxyphenoxy)ethyl]-4-[(6-bromoquinolin-4-yl)amino]benzamide]
- melting point: 240.5 to 241.3 °C
- inhibition at 12.5 µM [1]: 21 ± 2.86%
- inhibition at 25 µM [1]: 19.2 ± 0.69%
- inhibition at 50 µM [1]: 19.2 ± 0.42%
- inhibition at 100 µM [1]: 18.4 ± 1.27%
- EC50 [1]: > 100 µM
- CC50 at 72 h (in vitro [2]): > 100 µM
- MDCK cells survival rate (MDCK cells; 12.5 µmol·L−1): 97.97±11.82%
- MDCK cells survival rate (MDCK cells; 25 µmol·L−1): 71.98±13.89%
- MDCK cells survival rate (MDCK cells; 50 µmol·L−1): 87.44±3.70%
- MDCK cells survival rate (MDCK cells; 100 µmol·L−1): 105.38±8.08%
- inhibition at 100 µM [3]: < 10%
- HEK293T cells survival rate (HEK293T cells; 3.125 µmol·L−1): 113.31±4.70%
- HEK293T cells survival rate (HEK293T cells; 6.25 µmol·L−1): 96.70±5.40%
- HEK293T cells survival rate (HEK293T cells; 12.5 µmol·L−1): 91.88±3.61%
- HEK293T cells survival rate (HEK293T cells; 25 µmol·L−1): 91.06±10.23%
- HEK293T cells survival rate (HEK293T cells; 50 µmol·L−1): 69.53±3.05%
- HEK293T cells survival rate (HEK293T cells; 100 µmol·L−1): 72.95±4.52%
- CC50 at 72 h (in vitro [4]): > 100 µM

SMILES: COc1ccccc1OCCNC(=O)c1ccc(Nc2ccnc3ccc(Cl)cc23)cc1 [Compound G25, N-[2-(2-Methoxyphenoxy)ethyl]-4-[(6-chloroquinolin-4-yl)amino]benzamide]
- melting point: 247.7 to 248.4 °C
- inhibition at 12.5 µM [1]: 26.1 ± 0.67%
- inhibition at 25 µM [1]: 25.7 ± 2.29%
- inhibition at 50 µM [1]: 22.5 ± 1.29%
- inhibition at 100 µM [1]: 22.3 ± 0.4%
- EC50 [1]: > 100 µM
- CC50 at 72 h (in vitro [2]): > 100 µM
- MDCK cells survival rate (MDCK cells; 12.5 µmol·L−1): 92.58±5.23%
- MDCK cells survival rate (MDCK cells; 25 µmol·L−1): 85.96±5.73%
- MDCK cells survival rate (MDCK cells; 50 µmol·L−1): 86.83±3.19%
- MDCK cells survival rate (MDCK cells; 100 µmol·L−1): 79.32±11.90%
- inhibition at 100 µM [3]: 0%
- HEK293T cells survival rate (HEK293T cells; 3.125 µmol·L−1): 104.71±1.87%
- HEK293T cells survival rate (HEK293T cells; 6.25 µmol·L−1): 103.50±6.33%
- HEK293T cells survival rate (HEK293T cells; 12.5 µmol·L−1): 99.13±1.95%
- HEK293T cells survival rate (HEK293T cells; 25 µmol·L−1): 65.73±7.64%
- HEK293T cells survival rate (HEK293T cells; 50 µmol·L−1): 101.61±11.65%
- HEK293T cells survival rate (HEK293T cells; 100 µmol·L−1): 110.35±11.54%
- CC50 at 72 h (in vitro [4]): > 100 µM

SMILES: Cc1cc(-c2ccccc2)n2nc(C(=O)Nc3ccccc3C(N)=O)nc2n1 [Compound H05]
- IC50 (PA-PB1 endonuclease [5]): 11 µM
- Activity scale Experimental (PA-PB1 endonuclease [6]): +++ (+++, IC50 10 to 100 μM (active))

SMILES: Cc1cc(-c2ccccc2)n2nc(C(=O)Nc3sc4c(c3C(=O)Nc3ccccn3)CCCCC4)nc2n1 [Compound H06]
- IC50 (PA-PB1 endonuclease [5]): 23 µM
- Activity scale Experimental (PA-PB1 endonuclease [6]): +++ (+++, IC50 10 to 100 μM (active))

SMILES: Cc1cc(-c2ccccc2)n2nc(C(=O)Nc3sc4c(c3C(=O)O)CCCCC4)nc2n1 [Compound H08]
- IC50 (PA-PB1 endonuclease [5]): 19 µM
- Activity scale Experimental (PA-PB1 endonuclease [6]): +++ (+++, IC50 10 to 100 μM (active))

SMILES: Cc1cc(-c2ccccc2)n2nc(C(=O)Nc3nc4ccccc4s3)nc2n1 [Compound H09]
- IC50 (PA-PB1 endonuclease [5]): 21 µM
- Activity scale Experimental (PA-PB1 endonuclease [6]): +++ (+++, IC50 10 to 100 μM (active))

SMILES: COc1ccccc1C(=O)Nc1sc2c(c1C(=O)Nc1ccccn1)CCCCC2 [Compound H11]
- IC50 (PA-PB1 endonuclease [5]): 22 µM
- Activity scale Experimental (PA-PB1 endonuclease [6]): +++ (+++, IC50 10 to 100 μM (active))

SMILES: O=C(Nc1sc2c(c1C(=O)Nc1ccc(Cl)cc1)CCCCC2)c1ccccc1O [Compound H12]
- IC50 (PA-PB1 endonuclease [5]): 18 µM
- Activity scale Experimental (PA-PB1 endonuclease [6]): +++ (+++, IC50 10 to 100 μM (active))

SMILES: O=C(Nc1sc2c(c1C(=O)Nc1ccccn1)CCCCC2)c1ccc(O)cc1 [Compound H13]
- IC50 (PA-PB1 endonuclease [5]): 26 µM
- Activity scale Experimental (PA-PB1 endonuclease [6]): +++ (+++, IC50 10 to 100 μM (active))

SMILES: Cc1cc(-c2ccccc2)nc2c(C(=O)Nc3sc4c(c3C(N)=O)CCC4)cnn12 [Compound H15]
- IC50 (PA-PB1 endonuclease [5]): 44.8 µM
- Activity scale Experimental (PA-PB1 endonuclease [6]): +++ (+++, IC50 10 to 100 μM (active))

SMILES: NC(=O)c1c(NC(=O)c2cnn3c(C(F)F)cc(-c4ccccc4)nc23)sc2c1CCC2 [Compound H16]
- IC50 (PA-PB1 endonuclease [5]): 25.4 µM
- Activity scale Experimental (PA-PB1 endonuclease [6]): +++ (+++, IC50 10 to 100 μM (active))

SMILES: CCCCOc1ccc(C(=O)Nc2nc3n(n2)C(c2ccccc2)C=C(C)N3)cc1 (stereo not shown) [Compound H18]
- IC50 (PA-PB1 endonuclease [5]): 37 µM
- Activity scale Experimental (PA-PB1 endonuclease [6]): +++ (+++, IC50 10 to 100 μM (active))

SMILES: Cc1cc(-c2ccccc2)nc2nc(NC(=O)c3ccccc3)nn12 [Compound H20]
- IC50 (PA-PB1 endonuclease [5]): 26 µM
- Activity scale Experimental (PA-PB1 endonuclease [6]): +++ (+++, IC50 10 to 100 μM (active))

SMILES: CCCOc1ccc(C(=O)Nc2nc3n(n2)C(c2ccccc2)C=C(C)N3)cc1 (stereo not shown) [Compound H21]
- IC50 (PA-PB1 endonuclease [5]): 40 µM
- Activity scale Experimental (PA-PB1 endonuclease [6]): +++ (+++, IC50 10 to 100 μM (active))

SMILES: CC1=CC(c2ccccc2)n2nc(NC(=O)c3ccc(OC(C)C)cc3)nc2N1 (stereo not shown) [Compound H22]
- IC50 (PA-PB1 endonuclease [5]): 75 µM
- Activity scale Experimental (PA-PB1 endonuclease [6]): +++ (+++, IC50 10 to 100 μM (active))

SMILES: CCOc1ccc(C(=O)Nc2nc3n(n2)C(c2ccccc2)C=C(C)N3)cc1 (stereo not shown) [Compound H23]
- IC50 (PA-PB1 endonuclease [5]): 139 µM
- Activity scale Experimental (PA-PB1 endonuclease [6]): ++ (++, IC50 100 to 150 μM (moderately active))

SMILES: CC1=CC(c2ccccc2)n2nc(NC(=O)c3ccccc3F)nc2N1 (stereo not shown) [Compound H25]
- IC50 (PA-PB1 endonuclease [5]): 185 µM
- Activity scale Experimental (PA-PB1 endonuclease [6]): + (+, IC50 >150 μM (inactive))

SMILES: CC1=CC(c2ccccc2)n2nc(NC(=O)c3cccc(F)c3)nc2N1 (stereo not shown) [Compound H26]
- IC50 (PA-PB1 endonuclease [5]): 156 µM
- Activity scale Experimental (PA-PB1 endonuclease [6]): + (+, IC50 >150 μM (inactive))

SMILES: CC1=CC(c2ccccc2)n2nc(NC(=O)c3ccc(F)cc3)nc2N1 (stereo not shown) [Compound H27]
- IC50 (PA-PB1 endonuclease [5]): 138 µM
- Activity scale Experimental (PA-PB1 endonuclease [6]): ++ (++, IC50 100 to 150 μM (moderately active))

SMILES: CC(c1ccccc1)n1nnnc1C(c1ccsc1)N1CCC(n2c(=O)[nH]c3ccccc32)CC1 (stereo not shown) [Compound H28]
- IC50 (PA-PB1 endonuclease [5]): 7.6 µM
- Activity scale Experimental (PA-PB1 endonuclease [6]): ++++ (++++, IC50 ≤ 10 μM (most active))

SMILES: CCOC(=O)c1ccc(NC(=O)CSc2nc(-c3ccccc3)cc(-c3ccc(OCc4ccccc4)c(OCC)c3)c2C#N)cc1 [Compound H30]
- IC50 (PA-PB1 endonuclease [5]): 30 µM
- Activity scale Experimental (PA-PB1 endonuclease [6]): +++ (+++, IC50 10 to 100 μM (active))

SMILES: NC(=O)c1c(NC(=O)c2cnn3c(C(F)F)cc(-c4ccccc4)nc23)sc2c1CCC2 [Compound H32]
- IC50 (PA-PB1 endonuclease [5]): 25.4 µM
- Activity scale Experimental (PA-PB1 endonuclease [6]): +++ (+++, IC50 10 to 100 μM (active))

SMILES: O=C(Nc1sc2c(c1C(=O)Nc1nccs1)CCCCC2)c1ccccc1O [Compound H33]
- IC50 (PA-PB1 endonuclease [5]): 69 µM
- Activity scale Experimental (PA-PB1 endonuclease [6]): +++ (+++, IC50 10 to 100 μM (active))

SMILES: COc1ccccc1C(=O)Nc1sc2c(c1C(=O)Nc1ccc(Cl)cc1)CCCCC2 [Compound H34]
- IC50 (PA-PB1 endonuclease [5]): 78 µM
- Activity scale Experimental (PA-PB1 endonuclease [6]): +++ (+++, IC50 10 to 100 μM (active))

SMILES: Cc1ccc(-c2cc(-c3ccccc3)nc(SCC(=O)Nc3cccc(Cl)c3)c2C#N)cc1 [Compound H35]
- IC50 (PA-PB1 endonuclease [5]): 180 µM
- Activity scale Experimental (PA-PB1 endonuclease [6]): + (+, IC50 >150 μM (inactive))
